# Laboratory results: US8263606B2 (Xenon Pharmaceuticals Inc., priority 2008, dated 2012)
# pIC50: −log10 of the molar value. Structures can show the parent of a compound that is named as a salt.
# Legend:
# sodium channel = assay: Guanidine influx assay (14C-guanidine radiotracer flux, in vitro); format: cell-based, human or rat; conditions: guanidine influx assay using a known cell line that expresses a sodium channel
# Method in brief: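 Radiotracer read-out: intracellular 14C-guanidine counted after washing with guanidine-supplemented low-sodium buffer. Cells expressing human or rat channels get test agent plus aconitine activator and tracer, incubated at ambient temperature. Dilution series centred on 1 μM; IC50 by sigmoidal dose-response fit.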
# CYP3A4 = CYP3A4 (Homo sapiens, UniProt P08684); assay: Cytochrome P450 (CYP450) Inhibition Assay, CYP3A4 (Vivid fluorescence, BOMCC substrate); conditions: human, P450 Baculosomes (recombinant CYP3A4), probe BOMCC (Vivid substrate)
# CYP3A4, sequence (P08684 whole entry): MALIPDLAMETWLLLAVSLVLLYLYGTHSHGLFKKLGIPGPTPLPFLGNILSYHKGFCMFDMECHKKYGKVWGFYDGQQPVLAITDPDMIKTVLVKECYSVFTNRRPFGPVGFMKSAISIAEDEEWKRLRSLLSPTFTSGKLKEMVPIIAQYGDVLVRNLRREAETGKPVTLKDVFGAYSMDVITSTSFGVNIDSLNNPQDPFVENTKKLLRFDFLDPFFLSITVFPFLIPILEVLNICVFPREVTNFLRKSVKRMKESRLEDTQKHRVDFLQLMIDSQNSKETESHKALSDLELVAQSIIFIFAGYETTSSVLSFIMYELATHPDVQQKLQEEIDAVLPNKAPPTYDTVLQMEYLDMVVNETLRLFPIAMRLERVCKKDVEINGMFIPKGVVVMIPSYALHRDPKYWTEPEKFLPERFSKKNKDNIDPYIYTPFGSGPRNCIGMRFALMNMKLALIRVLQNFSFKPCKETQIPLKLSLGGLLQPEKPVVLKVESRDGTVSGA
pIC50 (sodium channel),inhibition at 10 µM (CYP3A4) [%],Structure (SMILES)
5.00 to 6.00,< 50,"CCc1ccc(NC(=O)CN2C(=O)C3(COc4cc5c(cc43)CCO5)c3ccccc32)cc1 (stereo not drawn) [Example 12.47, N-(4-ethylphenyl)-2-(2′-oxo-5,6-dihydrospiro[benzo[1,2-b:5,4-b′]difuran-3,3′-indol]-1′(2′H)-yl)acetamide]"
6.00 to 7.00,< 50,"CCN(CC)C(=O)CN1C(=O)C2(COc3cc4c(cc32)CCO4)c2ccccc21 (stereo not drawn) [Example 12.48, N,N-diethyl-2-(2′-oxo-5,6-dihydrospiro[benzo[1,2-b:5,4-b′]difuran-3,3′-indol]-1′(2′H)-yl)acetamide]"
5.00 to 6.00,< 50,"CNC(=O)c1cccnc1CN1C(=O)C2(COc3cc4c(cc32)OCCO4)c2ccccc21 (stereo not drawn) [Example 12.63, N-methyl-2-[(2′-oxo-2,3-dihydrospiro[furo[2,3-g][1,4]benzodioxine-8,3′-indol]-1′(2′H)-yl)methyl]pyridine-3-carboxamide]"
6.00 to 7.00,> 50,"NCCNC(=O)c1cccnc1CN1C(=O)C2(COc3cc4c(cc32)OCCO4)c2ccccc21 (stereo not drawn) [Example 12.64, N-(2-aminoethyl)-2-[(2′-oxo-2,3-dihydrospiro[furo[2,3-g][1,4]benzodioxine-8,3′-indol]-1′(2′H)-yl)methyl]pyridine-3-carboxamide dihydrochloride]"
5.00 to 6.00,< 50,"O=C(O)c1ccc(CN2C(=O)C3(COc4cc5c(cc43)CCO5)c3ccccc32)o1 (stereo not drawn) [Example 13, 5-[(2′-oxo-5,6-dihydrospiro[benzo[1,2-b:5,4-b′]difuran-3,3′-indol]-1′(2′H)-yl)methyl]furan-2-carboxylic acid]"
7.00 to 9.00,> 50,"CN(C)C(=O)c1ccc(CN2C(=O)C3(COc4cc5c(cc43)CCO5)c3ccccc32)o1 (stereo not drawn) [Example 13.1, N,N-dimethyl-5-[(2′-oxo-5,6-dihydrospiro[benzo[1,2-b:5,4-b′]difuran-3,3′-indol]-1′(2′H)-yl)methyl]furan-2-carboxamide]"
6.00 to 7.00,> 50,"CNC(=O)c1ccc(CN2C(=O)C3(COc4cc5c(cc43)CCO5)c3ccccc32)o1 (stereo not drawn) [Example 13.2, N-methyl-5-[(2′-oxo-5,6-dihydrospiro[benzo[1,2-b:5,4-b′]difuran-3,3′-indol]-1′(2′H)-yl)methyl]furan-2-carboxamide]"
6.00 to 7.00,< 50,"NC(=O)c1coc(CN2C(=O)C3(COc4cc5c(cc43)CCO5)c3ccccc32)n1 (stereo not drawn) [Example 13.3, 2-[(2′-oxo-5,6-dihydrospiro[benzo[1,2-b:5,4-b′]difuran-3,3′-indol]-1′(2′H)-yl)methyl]-1,3-oxazole-4-carboxamide]"
6.00 to 7.00,< 50,"CN(C)C(=O)c1coc(CN2C(=O)C3(COc4cc5c(cc43)CCO5)c3ccccc32)n1 (stereo not drawn) [Example 13.4, N,N-dimethyl-2-[(2′-oxo-5,6-dihydrospiro[benzo[1,2-b:5,4-b′]difuran-3,3′-indol]-1′(2′H)-yl)methyl]-1,3-oxazole-4-carboxamide]"
7.00 to 9.00,> 50,"O=C(NC1CC1)c1coc(CN2C(=O)C3(COc4cc5c(cc43)OCO5)c3ccccc32)n1 (stereo not drawn) [Example 13.5, N-cyclopropyl-2-[(2′-oxospiro[furo[2,3-f][1,3]benzodioxole-7,3′-indol]-1′(2′H)-yl)methyl]-1,3-oxazole-4-carboxamide]"
7.00 to 9.00,> 50,"CC(C)NC(=O)c1coc(CN2C(=O)C3(COc4cc5c(cc43)OCO5)c3ccccc32)n1 (stereo not drawn) [Example 13.6, N-(1-methylethyl)-2-[(2′-oxospiro[furo[2,3-f][1,3]benzodioxole-7,3′-indol]-1′(2′H)-yl)methyl]-1,3-oxazole-4-carboxamide]"
6.00 to 7.00,> 50,"O=C1N(C[C@H]2CCCO2)c2cccc(/C=C/c3ccc(F)cc3)c2C12COc1cc3c(cc12)CCO3 (stereo partly drawn) [Example 16.1, 4′-[(E)-2-(4-fluorophenyl)ethenyl]-1′-[(2R)-tetrahydrofuran-2-ylmethyl]-5,6-dihydrospiro[benzo[1,2-b:5,4-b′]difuran-3,3′-indol]-2′(1′H)-one]"
